Among the data in US10421756B2, “Heterobicyclic N-aminophenyl-amides as inhibitors of histone deacetylase” (Rodin Therapeutics, Inc., priority 2015, dated 2019) are Kd and residence time values, retold here.

Common to all, as to assay type: binding
The target in test [1] is T1, HDAC2 (Homo sapiens (Human), UniProt Q92769). Nature of the test: Reporter displacement assay (HDAC2). The following applies: reporter probe displacement, Cheng Prusoff. The procedure: HDAC2 containing a C-terminal HIS-Tag (Proteros) and fluorescently-labeled anti-HIS-antibody are diluted in one vial in assay buffer 50 mM Tris, pH 8.0, 1 mM DTT, 150 mM NaCl, and 0.01% Tween20. Components are pre-incubated for 30 min, then a small volume of reporter probe (Proteros) is added from a highly concentrated stock and incubation is continued for another 30 min. Final concentrations after adding the reporter probe amount to 20 nM HDAC2, 4 nM antibody, and 180 nM probe.
Ten μl/well of pre-formed complex are transferred into 384 well assay plates (Corning). Compounds to be profiled are serially diluted from […] in DMSO and 60 nl are added to assay plates by pintool transfer (CybiWell, Cybio). Fluorescence intensity signal is read after 4 h in a Pherastar FS (BMG Labtech) at 337/665 nm.
For Kd determination, percent probe displacement values are calculated for each compound concentration and plotted against the compound concentration. IC50-like values (corresponding to 50% probe displacement) are calculated using standard fitting algorithms. Since the reporter probe is used at a concentration reflecting its own Kd value, compound Kd values can be calculated according to the Cheng Prusoff equation.
In the table, “A” indicates a Kd value of less than 0.1 μM; “B” a Kd value of between 0.1 μM and 0.5 μM; “C” a Kd value of greater than 0.5 μM and less than or equal to 5.0 μM; and “D” a Kd value of greater than 5.0 μM.

Another test addresses HDAC1 (Homo sapiens (Human), UniProt Q13547). In words: Reporter displacement assay (HDAC1). The following applies: for Kd: reporter probe displacement, Cheng Prusoff. The procedure:
[The procedure below names another target; the source lists this target under the same test.] HDAC2 containing a C-terminal HIS-Tag (Proteros) and fluorescently-labeled anti-HIS-antibody are diluted in one vial in assay buffer 50 mM Tris, pH 8.0, 1 mM DTT, 150 mM NaCl, and 0.01% Tween20. Components are pre-incubated for 30 min, then a small volume of reporter probe (Proteros) is added from a highly concentrated stock and incubation is continued for another 30 min.
Ten μl/well of pre-formed complex are transferred into 384 well assay plates (Corning). Compounds to be profiled are serially diluted from […] in DMSO and 60 nl are added to assay plates by pintool transfer (CybiWell, Cybio).
For Kd determination, percent probe displacement values are calculated for each compound concentration and plotted against the compound concentration. […] Since the reporter probe is used at a concentration reflecting its own Kd value, compound Kd values can be calculated according to the Cheng Prusoff equation.

Test [2] has as its target T1, HDAC2. Nature of the test: Reporter displacement assay (HDAC2).

Each structure is given as a SMILES string.

T1 sequence (Q92769 whole entry): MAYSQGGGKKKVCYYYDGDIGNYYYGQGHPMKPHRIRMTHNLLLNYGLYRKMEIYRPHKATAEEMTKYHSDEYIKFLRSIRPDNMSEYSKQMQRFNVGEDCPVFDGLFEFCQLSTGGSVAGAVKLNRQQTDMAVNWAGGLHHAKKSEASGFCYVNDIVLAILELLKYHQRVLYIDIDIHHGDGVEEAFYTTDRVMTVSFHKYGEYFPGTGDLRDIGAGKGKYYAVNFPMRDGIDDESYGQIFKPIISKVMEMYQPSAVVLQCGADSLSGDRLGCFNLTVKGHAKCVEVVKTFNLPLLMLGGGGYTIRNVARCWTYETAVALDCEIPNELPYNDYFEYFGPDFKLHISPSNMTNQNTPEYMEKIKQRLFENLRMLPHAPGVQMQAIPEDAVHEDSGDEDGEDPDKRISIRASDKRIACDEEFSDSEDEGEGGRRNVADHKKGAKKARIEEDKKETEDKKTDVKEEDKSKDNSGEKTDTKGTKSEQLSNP
HDAC1, sequence (Q13547 whole entry): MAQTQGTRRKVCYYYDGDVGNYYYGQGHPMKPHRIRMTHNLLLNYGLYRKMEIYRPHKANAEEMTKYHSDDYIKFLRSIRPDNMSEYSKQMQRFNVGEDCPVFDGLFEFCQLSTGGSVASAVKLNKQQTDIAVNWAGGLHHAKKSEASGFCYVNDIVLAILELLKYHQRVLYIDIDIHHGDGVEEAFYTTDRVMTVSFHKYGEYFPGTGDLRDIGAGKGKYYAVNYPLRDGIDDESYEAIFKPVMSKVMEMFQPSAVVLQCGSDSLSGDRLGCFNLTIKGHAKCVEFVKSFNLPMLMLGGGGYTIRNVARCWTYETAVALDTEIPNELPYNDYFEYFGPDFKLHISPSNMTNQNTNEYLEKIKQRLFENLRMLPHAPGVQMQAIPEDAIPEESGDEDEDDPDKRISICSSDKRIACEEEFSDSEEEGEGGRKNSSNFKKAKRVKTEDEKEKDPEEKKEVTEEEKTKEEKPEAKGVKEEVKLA

As for `COCCN1CCC2(CCN(C(=O)Nc3cc(-c4ccncc4)ccc3N)CC2)C1` [Compound 136], the figures for the Kd at HDAC2 [1] and on HDAC1 were 100 to 500 nM and less than 100 nM, respectively. Moreover, the residence time on HDAC1 was determined as 941 min; at HDAC2 [2] it was 1540 min.
Take `Nc1ccc(-c2cc(F)c(F)c(F)c2)cc1NC(=O)N1Cc2ccncc2C1` [Compound 142]: the Kd on HDAC2 [1] and on HDAC1 was 500 to 5000 nM in each case. The residence time is 982 min at HDAC1 and 1010 min at HDAC2 [2].
On to `CC(C)(C)OC(=O)N1CC2CN(C(=O)Nc3cc(-c4ccc(F)cc4)ccc3N)CC2C1` (stereo not drawn) [Compound 124], for which the Kd on HDAC2 [1] and at HDAC1 was 100 to 500 nM throughout. Moreover, the residence time was 584 min on HDAC1 and 1790 min at HDAC2 [2].
Turning to `Nc1ccc(-c2ccc(F)c(F)c2)cc1NC(=O)c1cn2c(n1)CNCC2` [Compound 131], the Kd at HDAC2 [1] and on HDAC1 was 100 to 500 nM each time. For the same molecule, the residence time at HDAC1 was determined as 695 min; at HDAC2 [2], 1200 min.
Regarding `COC(=O)N1CC2CN(C(=O)Nc3cc(-c4ccc(F)cc4)ccc3N)CC2C1` (stereo not drawn) [Compound 154], the Kd at HDAC2 [1] and on HDAC1 was 100 to 500 nM each time. Moreover, the residence time stood at 1350 min at HDAC1 and 1540 min on HDAC2 [2].
On to `NCC(=O)N1CC2CN(C(=O)Nc3cc(-c4ccc(F)cc4)ccc3N)CC2C1` (stereo not drawn) [Compound 121], for which the figures for the Kd on HDAC2 [1] and on HDAC1 were 500 to 5000 nM and 100 to 500 nM, respectively. Moreover, the residence time at HDAC1 is 587 min; on HDAC2 [2], 869 min.
